From publication PMC5118696, “Identification of inhibitors that dually target the new permeability pathway and dihydroorotate dehydrogenase in the blood stage of Plasmodium falciparum” (Scientific Reports, 2016) come the findings set out here.

Read-outs that look alike come from different tables or passages of the source.

Test [1] relates to Hyp1-NLuc Plasmodium falciparum-infected erythrocytes (new permeability pathway, NPP). Put plainly: microbe, parasite or virus in culture. Particulars: Erythrocyte, 0.33 h, read-out: % of control remaining.
The test system is the same in test [2]. As to the kind of experiment: microbe, parasite or virus in culture. The following applies: Erythrocyte, 0.33 h, read-out: Mean RLU at 28 min (As % of DMSO control).

For `c1ccc(-c2ccc(-c3nc4ccccc4[nH]3)cc2)cc1` [MMV665891], the activity at 2 µM in test [1] was determined as 122%; in test [2], 109%.
For the compound `CC(=O)c1sc(NC(=O)Nc2ccc(C)cc2C)nc1C` [MMV665894], the activity at 2 µM in test [1] turned out to be 93%; in test [2], 99.8%.
For `COc1ccc2nc(N)nc(C)c2c1` [MMV665897] the same measures were 93.5% and 103%.
For `COc1cc(C(=O)Nc2ccc(-c3nc4ccccc4[nH]3)cc2)cc(OC)c1OC` [MMV665898], the activity at 2 µM worked out at 103% in test [1] and 108% in test [2].
For `O=C(c1ccccc1F)N(Cc1ccc(Cl)cc1)c1ccccn1` [MMV665899] the same measures were 106% and 102%.
For the compound `O=C(Nc1ccc(CN2CCOCC2)cc1)c1ccc(-c2ccc(Br)cc2)o1` [MMV665901], the activity at 2 µM in test [1] was 105%; in test [2], 99.8%.
Consider `N=c1n(CCN2CCCCC2)c2ccccc2n1CC(O)c1cccc(Br)c1` (stereo not shown) [MMV665902], for which the activity at 2 µM in test [1] stood at 115%; in test [2] it was 101%.
As to `COCCn1c(C)nc2ccccc2c1=O` [MMV665904], the activity at 2 µM came out at 112% in test [1] and 110% in test [2].
In the case of `Cc1ccc(-c2cc(C(=O)Nc3ccc(S(=O)(=O)N4CCCCC4)cc3)[nH]n2)c(O)c1` [MMV665906], the activity at 2 µM in test [1] was 105%; in test [2], 100%.
For the compound `COc1ccc(N2CCN(C(CNC(=O)CC(C)(C)C)c3ccc4c(c3)OCO4)CC2)cc1` (stereo not shown) [MMV665908], the activity at 2 µM in test [1] turned out to be 97.1%; in test [2] it was 92.5%.
Turning to `O=C(Nc1nc(-c2ccccn2)cs1)c1ccccc1Br` [MMV665909], the values for the activity at 2 µM in test [1] and in test [2] were 103% and 95.5%, respectively.
In the case of `CCOc1ccc(-c2nc(NC(=O)c3cccc(S(C)(=O)=O)c3)sc2C)cc1` [MMV665913], the activity at 2 µM amounted to 106% in test [1] and 98.8% in test [2].
Regarding `COc1ccccc1N1CCN(C(CNS(=O)(=O)c2ccc(Cl)cc2)c2cccnc2)CC1` (stereo not shown) [MMV665914], the activity at 2 µM in test [1] came to 97.5%; in test [2], 102%.
Consider `COc1ccc(-c2nc(NC(=O)CS(=O)(=O)c3ccc(F)cc3)sc2C)cc1` [MMV665915], for which the activity at 2 µM in test [1] is 98.3%; in test [2] it was 101%.
Take `COc1ccccc1CNC(=O)CCn1c(=O)[nH]c2ccccc2c1=O` [MMV665916]: the activity at 2 µM was 98.4% in test [1] and 98.8% in test [2].
With `O=C(Nc1ccc(Cl)cc1)N1CCN(c2ccc3nncn3n2)CC1` [MMV665917], the activity at 2 µM in test [1] was determined as 27.3%; in test [2], 53.8%.
As to `O=C(CSc1ccc2nnc(-c3cccc(F)c3)n2n1)Nc1ccc2c(c1)OCO2` [MMV665918], the activity at 2 µM in test [1] stood at 121%; in test [2], 106%.
In the case of `N=c1c2ccccc2nnn1-c1cccc(C(F)(F)F)c1` [MMV665923], the activity at 2 µM was 89.5% in test [1] and 94.3% in test [2].
In the case of `COc1ccc(C(=O)C2CC2c2ccc(Cl)cc2)cc1` (stereo not shown) [MMV665924], the activity at 2 µM in test [1] was 103%; in test [2] it was 100%.
For `O=C(CCl)NCCOc1ccc(Cl)cc1Cl` [MMV665927], the activity at 2 µM was determined as 86.2% in test [1] and 98.1% in test [2].
`CCC(C)NCC(O)(c1ccc(Cl)cc1)c1ccc(Cl)cc1` (stereo not shown) [MMV665928]: the results for the activity at 2 µM in test [1] and in test [2] were 121% and 106%, respectively.
In the case of `CCCCNCC(O)(c1ccc(Cl)cc1)c1ccc(Cl)cc1` [MMV665929], the activity at 2 µM in test [1] turned out to be 122%; in test [2] it was 107%.
Take `O=C1c2ccccc2-c2nnc(-c3ccc(Br)cc3)cc21` [MMV665934]: the activity at 2 µM in test [1] was 97.2%; in test [2], 92.6%.
In the case of `FC(F)(F)c1ccc(Nc2nnnc3ccccc23)cc1` [MMV665935], the activity at 2 µM in test [1] came out at 112%; in test [2] it was 99.5%.
In the case of `Cc1ccc(S(=O)(=O)c2c(COC(=O)c3cccc(C)c3)c(-c3ccccc3)nn2C)cc1` [MMV665936], the activity at 2 µM is 100% in test [1] and 97% in test [2].
With `O=C(Nc1ccsc1C(=O)NC1CCCCC1)c1ccc(F)cc1` [MMV665939], the activity at 2 µM stood at 115% in test [1] and 104% in test [2].
On to `CCOc1ccc(C=Cc2nc(=O)c3ccccc3o2)cc1` [MMV665940], for which the values for the activity at 2 µM in test [1] and in test [2] were 31.3% and 61.5%, respectively.
For `CN(C)c1ccc(C(O)(c2ccc(N(C)C)cc2)c2ccc(N(C)C)cc2)cc1` [MMV665941] the same measures were 96.5% and 98.3%.
In the case of `Nc1ccc(-c2nc3cc(Cc4ccc5[nH]c(-c6ccc(N)cc6)nc5c4)ccc3[nH]2)cc1` [MMV665943], the activity at 2 µM in test [1] is 51.7%; in test [2], 64.3%.
With `COc1ccc(CN2CCN(Cc3ccccc3)CC2)c(O)c1` [MMV665944], the activity at 2 µM in test [1] stood at 99.6%; in test [2], 96.8%.
Take `CC(C)=CCN1CCC(C(=O)Nc2ccc(-c3nc4ccccc4[nH]3)cc2)CC1` [MMV665946]: the activity at 2 µM stood at 121% in test [1] and 106% in test [2].
With `O=C(Nc1ccccc1O)c1ccc(-c2ccc(Cl)cc2Cl)o1` [MMV665948], the activity at 2 µM amounted to 120% in test [1] and 105% in test [2].
Taken in the same sequence, the figures for `Oc1ccc(C(=C(Cl)Cl)c2ccc(O)cc2)cc1` [MMV665949] were 95.5% and 90%.
In the case of `O=C(Nc1ccc(F)c(Cl)c1)Nc1ccc(Cl)c(Cl)c1` [MMV665953], the activity at 2 µM was 125% in test [1] and 108% in test [2].
Turning to `O=C(NCC1Cc2cccc(-c3ccncc3)c2O1)c1csc2c1CCCC2` (stereo not shown) [MMV665954], the activity at 2 µM in test [1] stood at 117%; in test [2] it was 104%.
As for `CCN(CC)CCCNc1nc(-c2ccc(Cl)cc2)nc2ccccc12` [MMV665961], the activity at 2 µM in test [1] was 101%; in test [2], 103%.
Taken in the same sequence, the figures for `COc1cccc(C(=O)NC(c2ccc(C)cc2)c2cc(Cl)c3cccnc3c2O)c1` (stereo not shown) [MMV665969] were 106% and 101%.
For `CCOC(=O)C1=C(C)N=c2sc(=Cc3cc(Cl)ccc3O)c(=O)n2C1c1ccc(OC)cc1` (stereo not shown) [MMV665971], the activity at 2 µM in test [1] was 102%; in test [2], 101%.
For `O=C(Cc1ccccc1)NC(c1ccc(Cl)cc1)c1c(O)ccc2ccccc12` (stereo not shown) [MMV665972], the figures for the activity at 2 µM in test [1] and in test [2] were 69.4% and 68.8%, respectively.
Regarding `CCOC(=O)c1cn(CC)c2cc(N(C)CCc3ccc(OC)c(OC)c3)c(F)cc2c1=O` [MMV665977], the activity at 2 µM was 87.8% in test [1] and 106% in test [2].
As to `FC(F)(F)c1cccc(CNC2CCN(CCc3ccccc3)CC2)c1` [MMV665979], the values for the activity at 2 µM in test [1] and in test [2] were 112% and 104%, respectively.
Turning to `OC1CCCCC1C1(NC(=S)Nc2ccccc2)CCCCC1` (stereo not shown) [MMV665980], the activity at 2 µM in test [1] and in test [2] was 101% each time.
For `CCCCCCc1cc(O)c2c3c(c(=O)oc2c1)CCC(C)C3` (stereo not shown) [MMV665987], the activity at 2 µM was 94.7% in test [1] and 89.8% in test [2].
For `Cc1nc2ccccc2c(O)c1CC=C(Cl)Cl` [MMV665994] the same measures were 101% and 96.6%.
